Source: ChEMBL document CHEMBL3526124, “Optimized experimental design for the estimation of enzyme kinetic parameters: an experimental evaluation” (Drug Metab Dispos, 2012)

Key:
Liver microsome [1] = assay: Drug metabolism in human liver microsomes assessed as intrinsic clearance per mg protein by optimal design approach
Cytochrome P450 1A2 [2] = target: T1, Cytochrome P450 1A2 (Homo sapiens, UniProt P05177); assay: Drug metabolism in assessed as human CYP1A2-mediated intrinsic clearance per mg protein; details: recombinant enzyme
T1 sequence (P05177 whole entry): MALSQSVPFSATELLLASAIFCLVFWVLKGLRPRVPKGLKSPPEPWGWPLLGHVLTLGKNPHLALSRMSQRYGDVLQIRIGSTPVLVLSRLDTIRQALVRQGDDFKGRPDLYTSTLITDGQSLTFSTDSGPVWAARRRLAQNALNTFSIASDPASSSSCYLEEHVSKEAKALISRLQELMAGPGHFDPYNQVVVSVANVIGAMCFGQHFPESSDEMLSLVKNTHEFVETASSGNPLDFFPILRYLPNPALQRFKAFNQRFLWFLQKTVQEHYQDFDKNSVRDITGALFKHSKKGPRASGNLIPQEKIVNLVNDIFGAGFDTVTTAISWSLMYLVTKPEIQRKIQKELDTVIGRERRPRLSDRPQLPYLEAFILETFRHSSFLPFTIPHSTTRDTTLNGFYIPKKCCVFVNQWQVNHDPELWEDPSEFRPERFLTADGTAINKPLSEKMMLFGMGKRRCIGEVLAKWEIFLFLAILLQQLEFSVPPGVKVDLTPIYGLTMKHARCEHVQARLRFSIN

[3] = Drug metabolism in human liver microsomes by multiple depletion curves method
Liver microsome [4] = assay: Drug metabolism in human liver microsomes assessed as intrinsic clearance per mg protein by multiple depletion curves method
Cytochrome P450 1A2 [5] = target: T1, Cytochrome P450 1A2; assay: Drug metabolism in assessed as human CYP1A2-mediated maximum rate of reaction per mg protein; type: ADME; details: recombinant enzyme
[6] = Drug metabolism in human liver microsomes by optimal design approach
Cytochrome P450 2C9 [7] = target: T2, Cytochrome P450 2C9 (Homo sapiens, UniProt P11712); assay: Drug metabolism in assessed as human CYP2C9-mediated maximum rate of reaction per mg protein; type: ADME; details: recombinant enzyme
T2 sequence (P11712 whole entry): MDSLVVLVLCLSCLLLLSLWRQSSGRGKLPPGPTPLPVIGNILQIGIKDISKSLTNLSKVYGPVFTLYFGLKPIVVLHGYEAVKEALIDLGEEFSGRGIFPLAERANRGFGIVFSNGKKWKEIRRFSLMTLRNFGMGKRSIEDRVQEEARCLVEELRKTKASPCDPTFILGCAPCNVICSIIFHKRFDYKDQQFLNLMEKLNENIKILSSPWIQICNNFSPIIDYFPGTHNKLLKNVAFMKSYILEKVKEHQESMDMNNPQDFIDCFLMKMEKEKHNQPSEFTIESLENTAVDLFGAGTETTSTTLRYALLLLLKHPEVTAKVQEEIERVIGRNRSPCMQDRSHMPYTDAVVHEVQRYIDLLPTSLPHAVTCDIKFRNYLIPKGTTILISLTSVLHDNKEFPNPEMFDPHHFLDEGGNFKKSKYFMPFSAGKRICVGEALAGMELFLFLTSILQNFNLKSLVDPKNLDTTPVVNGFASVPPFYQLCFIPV

CYP2C9 = CYP2C9 (Homo sapiens, UniProt P11712); assay: Drug metabolism in assessed as human CYP2C9-mediated metabolism; type: ADME; details: recombinant enzyme
Chain of CYP2C9 (P11712 whole entry): as above

Cytochrome P450 2C9 [8] = target: T2, Cytochrome P450 2C9; assay: Drug metabolism in assessed as human CYP2C9-mediated intrinsic clearance per mg protein; type: ADME; details: recombinant enzyme
Cytochrome P450 2D6 [9] = target: T3, Cytochrome P450 2D6 (Homo sapiens, UniProt P10635); assay: Drug metabolism in assessed as human CYP2D6-mediated intrinsic clearance per mg protein; type: ADME; details: recombinant enzyme
CYP2D6 = CYP2D6 (Homo sapiens, UniProt P10635); assay: Drug metabolism in assessed as human CYP2D6-mediated metabolism; type: ADME; details: recombinant enzyme
Cytochrome P450 2D6 [10] = target: T3, Cytochrome P450 2D6; assay: Drug metabolism in assessed as human CYP2D6-mediated maximum rate of reaction per mg protein; type: ADME; details: recombinant enzyme
CYP3A = assay: Drug metabolism in assessed as human CYP3A-mediated metabolism; type: ADME; details: recombinant enzyme
[11] = Drug metabolism in assessed as human CYP3A-mediated intrinsic clearance per mg protein; type: ADME; details: recombinant enzyme
[12] = Drug metabolism in assessed as human CYP3A-mediated maximum rate of reaction per mg protein; type: ADME; details: recombinant enzyme
not read [13] = substrate: CN(C)CCCN1c2ccccc2CCc2ccccc21; assay: not read
not read [14] = substrate: CCc1cccc2cc(C(O)CNC(C)(C)C)oc12; assay: not read

CCOc1ccc(NC(C)=O)cc1 [PHENACETIN]
CLH (Liver microsome [1]): 50.4 µL/min/g
CL (Cytochrome P450 1A2 [2]): 14.6 µL/min/g
Km ([3]; liver microsomes): 22.6 µM
CLH (Liver microsome [4]): 39.5 µL/min/g
Vmax (Cytochrome P450 1A2 [5]): 322 pmol/min
Km ([6]; liver microsomes): 22.6 µM

O=C(O)Cc1ccccc1Nc1c(Cl)cccc1Cl [DICLOFENAC]
Vmax (Cytochrome P450 2C9 [7]): 710 pmol/min
Km (CYP2C9): 1.7 µM
clearance (Cytochrome P450 2C9 [8]): 130 µL/min/mg
Km ([3]; microsomes): 11.6 µM
Km ([6]; microsomes): 8.55 µM

CCN(CC)Cc1cc(Nc2ccnc3cc(Cl)ccc23)ccc1O [AMODIAQUINE]
CLH (Liver microsome [1]): 224 µL/min/g
Km ([3]; microsomes): 3.33 µM
CLH (Liver microsome [4]): 829 µL/min/g
Km ([6]; microsomes): 5.17 µM

COc1ccc([C@@H]2Sc3ccccc3N(CCN(C)C)C(=O)[C@@H]2OC(C)=O)cc1 [DILTIAZEM]
CLH (Liver microsome [1]): 75.4 µL/min/g
Km ([3]; liver microsomes): 10 µM
CLH (Liver microsome [4]): 47.6 µL/min/g
Km ([6]; liver microsomes): 9.8 µM

CCc1cccc2cc(C(O)CNC(C)(C)C)oc12 (stereo not drawn) [BUFURALOL]
CLH (Liver microsome [1]): 32.3 µL/min/g
Km ([3]; microsomes): 11.7 µM
CLH (Liver microsome [4]): 31 µL/min/g
clearance (Cytochrome P450 2D6 [9]): 3 µL/min/mg
Km ([6]; microsomes): 12.8 µM

COc1ccc2c(c1)[C@]13CCCC[C@@H]1[C@H](C2)N(C)CC3 [DEXTROMETHORPHAN]
CLH (Liver microsome [1]): 54.2 µL/min/g
Km (CYP2D6): 1.4 µM
Km ([3]; liver microsomes): 7.16 µM
CLH (Liver microsome [4]): 84.1 µL/min/g
Vmax (Cytochrome P450 2D6 [10]): 140 pmol/min
Km ([6]; liver microsomes): 6.32 µM

Cc1ncc2n1-c1ccc(Cl)cc1C(c1ccccc1F)=NC2 [MIDAZOLAM]
Km (CYP3A): 1.2 µM
CLH (Liver microsome [1]): 220 µL/min/g
Km ([3]; microsomes): 1.26 µM
CL [11]: 159 µL/min/g
Vmax [12]: 636 pmol/min
CLH (Liver microsome [4]): 717 µL/min/g
Km ([6]; microsomes): 3.04 µM

B1: Cytochrome P450 1A2 (Homo sapiens) (protein)
chain: MALSQSVPFSATELLLASAIFCLVFWVLKGLRPRVPKGLKSPPEPWGWPLLGHVLTLGKNPHLALSRMSQRYGDVLQIRIGSTPVLVLSRLDTIRQALVRQGDDFKGRPDLYTSTLITDGQSLTFSTDSGPVWAARRRLAQNALNTFSIASDPASSSSCYLEEHVSKEAKALISRLQELMAGPGHFDPYNQVVVSVANVIGAMCFGQHFPESSDEMLSLVKNTHEFVETASSGNPLDFFPILRYLPNPALQRFKAFNQRFLWFLQKTVQEHYQDFDKNSVRDITGALFKHSKKGPRASGNLIPQEKIVNLVNDIFGAGFDTVTTAISWSLMYLVTKPEIQRKIQKELDTVIGRERRPRLSDRPQLPYLEAFILETFRHSSFLPFTIPHSTTRDTTLNGFYIPKKCCVFVNQWQVNHDPELWEDPSEFRPERFLTADGTAINKPLSEKMMLFGMGKRRCIGEVLAKWEIFLFLAILLQQLEFSVPPGVKVDLTPIYGLTMKHARCEHVQARLRFSIN
Km (not read [13]): 5 µM
Vmax (not read [13]): 0.000117 µmol/min

B2: Cytochrome P450 2D6 (Homo sapiens) (protein)
chain: MGLEALVPLAVIVAIFLLLVDLMHRRQRWAARYPPGPLPLPGLGNLLHVDFQNTPYCFDQLRRRFGDVFSLQLAWTPVVVLNGLAAVREALVTHGEDTADRPPVPITQILGFGPRSQGVFLARYGPAWREQRRFSVSTLRNLGLGKKSLEQWVTEEAACLCAAFANHSGRPFRPNGLLDKAVSNVIASLTCGRRFEYDDPRFLRLLDLAQEGLKEESGFLREVLNAVPVLLHIPALAGKVLRFQKAFLTQLDELLTEHRMTWDPAQPPRDLTEAFLAEMEKAKGNPESSFNDENLRIVVADLFSAGMVTTSTTLAWGLLLMILHPDVQRRVQQEIDDVIGQVRRPEMGDQAHMPYTTAVIHEVQRFGDIVPLGVTHMTSRDIEVQGFRIPKGTTLITNLSSVLKDEAVWEKPFRFHPEHFLDAQGHFVKPEAFLPFSAGRRACLGEPLARMELFLFFTSLLQHFSFSVPTGQPRPSHHGVFAFLVSPSPYELCAVPR
Km (not read [14]): 8.2 µM
Vmax (not read [14]): 7e-05 µmol/min

B3: Cytochrome P450 2C19 (Homo sapiens) (protein)
chain: MDPFVVLVLCLSCLLLLSIWRQSSGRGKLPPGPTPLPVIGNILQIDIKDVSKSLTNLSKIYGPVFTLYFGLERMVVLHGYEVVKEALIDLGEEFSGRGHFPLAERANRGFGIVFSNGKRWKEIRRFSLMTLRNFGMGKRSIEDRVQEEARCLVEELRKTKASPCDPTFILGCAPCNVICSIIFQKRFDYKDQQFLNLMEKLNENIRIVSTPWIQICNNFPTIIDYFPGTHNKLLKNLAFMESDILEKVKEHQESMDINNPRDFIDCFLIKMEKEKQNQQSEFTIENLVITAADLLGAGTETTSTTLRYALLLLLKHPEVTAKVQEEIERVIGRNRSPCMQDRGHMPYTDAVVHEVQRYIDLIPTSLPHAVTCDVKFRNYLIPKGTTILTSLTSVLHDNKEFPNPEMFDPRHFLDEGGNFKKSNYFMPFSAGKRICVGEGLARMELFLFLTFILQNFNLKSLIDPKDLDTTPVVNGFASVPPFYQLCFIPV
Km (not read [13]): 5 µM
Vmax (not read [13]): 0.000117 µmol/min
